According to patent publication US9765083B2, “Method for the synthesis of irinotecan” (Synbias Pharma AG, priority 2013, dated 2017):

Assay: solubility of 7-des-ethyl-irinotecan compared with camptothecin and 10-hydroxycamptothecin
Type: physicochemical
Conditions: as compared to camptothecin and 10-hydroxycamptothecin; solvent not stated

CC[C@@]1(O)C(=O)OCc2c1cc1n(c2=O)Cc2cc3cc(OC(=O)N4CCC(N5CCCCC5)CC4)ccc3nc2-1 [7-des-ethyl-irinotecan, 10-[4-(1-piperidino)-1-piperidino]carbonyloxycamptothecin]
solubility: significantly better solubility
